# Measured values reported in patent publication US20090226527A1, “Particulate-stabilized injectable pharmacutical compositions of posaconazole” (priority 2004, published 2009).
# Values joined by “and” are separate entries in the source; they are usually repeats but may differ in a detail not shown here. Equal entries are not always repeated. Where two headings read alike, the source gives them in different places.
# Tested on: infectious agents (strains tested)
# Experiment: organism not typed
# Assay type: cell-based
compound,measurement,setting,value
OC(Cn1cncn1)(Cn1cncn1)c1ccc(F)cc1F [FLZ],Geometric Mean MIC,,16.450 µg/mL and 19.027 µg/mL
same,Geometric Mean MIC,Absidia spp,143.675 µg/mL
same,Geometric Mean MIC,Apophysomyces spp,128.000 µg/mL
same,MIC[90],Apophysomyces spp,(128.0) μg/mL
same,Geometric Mean MIC,Aspergillus flavus,220.898 µg/mL
same,MIC[90],Aspergillus fumigatus,512.0 µg/mL
same,Geometric Mean MIC,Aspergillus nidulans,76.109 µg/mL
same,MIC[90],Aspergillus nidulans,(32.0-128.0) μg/mL
same,Geometric Mean MIC,Aspergillus niger,234.753 µg/mL
same,Geometric Mean MIC,Aspergillus sydowii,115.933 µg/mL
same,Geometric Mean MIC,Aspergillus terreus,208.327 µg/mL
same,Geometric Mean MIC,Aspergillus ustus,172.275 µg/mL
same,Geometric Mean MIC,Bipolaris spp,64.000 µg/mL
same,MIC[90],Bipolaris spp,(64.0) μg/mL
same,Geometric Mean MIC,Bjerkandera adusta,4.000 µg/mL
same,MIC[90],Bjerkandera adusta,4.0 µg/mL
same,Geometric Mean MIC,Blastomyces dermatitidis,2.191 µg/mL
same,MIC[90],Blastomyces dermatitidis,16.0 µg/mL
same,Geometric Mean MIC,Candida albicans,0.415 µg/mL
same,MIC[90],Candida albicans,2.0 µg/mL
same,Geometric Mean MIC,Candida dubliniensis,0.454 µg/mL
same,MIC[90],Candida dubliniensis,32.0 µg/mL
same,Geometric Mean MIC,Candida famata,4.084 µg/mL
same,MIC[90],Candida famata,32.0 µg/mL
same,Geometric Mean MIC,Candida glabrata,9.719 µg/mL
same,MIC[90],Candida glabrata,64.0 µg/mL
same,Geometric Mean MIC,Candida guilliermondii,4.000 µg/mL
same,MIC[90],Candida guilliermondii,32.0 µg/mL
same,Geometric Mean MIC,Candida kefyr,0.500 µg/mL
same,MIC[90],Candida kefyr,4.0 µg/mL
same,Geometric Mean MIC,Candida krusei,32.521 µg/mL
same,MIC[90],Candida krusei,64.0 µg/mL
same,Geometric Mean MIC,Candida lusitaniae,0.627 µg/mL
same,MIC[90],Candida lusitaniae,2.0 µg/mL
same,Geometric Mean MIC,Candida parapsilosis,0.910 µg/mL
same,MIC[90],Candida parapsilosis,2.0 µg/mL
same,Geometric Mean MIC,Candida rugosa,3.391 µg/mL
same,MIC[90],Candida rugosa,16.0 µg/mL
same,Geometric Mean MIC,Candida tropicalis,0.961 µg/mL
same,MIC[90],Candida tropicalis,4.0 µg/mL
same,Geometric Mean MIC,Candida zeylanoides,0.354 µg/mL
same,MIC[90],Candida zeylanoides,(0.125-1.0) μg/mL
same,Geometric Mean MIC,Cryptococcus laurentii,5.040 µg/mL
same,MIC[90],Cryptococcus laurentii,(4.0-8.0) μg/mL
same,Geometric Mean MIC,Cryptococcus neoformans,1.781 µg/mL
same,MIC[90],Cryptococcus neoformans,8.0 µg/mL
same,Geometric Mean MIC,Curvularia spp,16.000 µg/mL
same,MIC[90],Curvularia spp,(16.0) μg/mL
same,Geometric Mean MIC,Epidermophyton floccosum,1.447 µg/mL
same,MIC[90],Epidermophyton floccosum,2.0 µg/mL
same,Geometric Mean MIC,Exophiala dermatidis,8.000 µg/mL
same,MIC[90],Exophiala dermatidis,(8.0) μg/mL
same,Geometric Mean MIC,Fonsecae pedrosoi,64.000 µg/mL
same,MIC[90],Fonsecae pedrosoi,(64.0) μg/mL
same,Geometric Mean MIC,Kluyveromyces marxianus,0.500 µg/mL
same,MIC[90],Kluyveromyces marxianus,(0.25-1.0) μg/mL
same,Geometric Mean MIC,Microsporum canis,2.000 µg/mL
same,MIC[90],Microsporum canis,4.0 µg/mL
same,Geometric Mean MIC,Microsporum gypseum,16.000 µg/mL
same,MIC[90],Microsporum gypseum,(4.0-128.0) μg/mL
same,Geometric Mean MIC,Microsporum persicolor,128.000 µg/mL
same,MIC[90],Microsporum persicolor,(128.0) μg/mL
same,Geometric Mean MIC,Mucor spp,207.937 µg/mL
same,Geometric Mean MIC,Paecilomyces spp,141.323 µg/mL
same,Geometric Mean MIC,Paracoccidioides brasiliensis,0.766 µg/mL
same,MIC[90],Paracoccidioides brasiliensis,4.0 µg/mL
same,Geometric Mean MIC,Penicillium spp,220.996 µg/mL
same,Geometric Mean MIC,Pichia anomala,2.670 µg/mL
same,MIC[90],Pichia anomala,4.0 µg/mL
same,Geometric Mean MIC,Pichia etchel,0.125 µg/mL
same,MIC[90],Pichia etchel,(0.125) μg/mL
same,Geometric Mean MIC,Pichia ohmeri,4.000 µg/mL
same,MIC[90],Pichia ohmeri,(4.0) μg/mL
same,Geometric Mean MIC,Pseudallescheria boydii,41.237 µg/mL
same,MIC[90],Pseudallescheria boydii,128.0 µg/mL
same,Geometric Mean MIC,Ramichloridium obovoideum,22.627 µg/mL
same,MIC[90],Ramichloridium obovoideum,(16.0-32.0) μg/mL
same,Geometric Mean MIC,Rhizopus spp,229.461 µg/mL
same,Geometric Mean MIC,Saccharomyces cerevisiae,2.845 µg/mL
same,MIC[90],Saccharomyces cerevisiae,16.0 µg/mL
same,Geometric Mean MIC,Scedosporium apiospermum,84.449 µg/mL
same,Geometric Mean MIC,Trichophyton mentagrophytes,9.190 µg/mL
same,MIC[90],Trichophyton mentagrophytes,64.0 µg/mL
same,Geometric Mean MIC,Trichophyton raubitschekii,128.000 µg/mL
same,MIC[90],Trichophyton raubitschekii,(128.0) μg/mL
same,Geometric Mean MIC,Trichophyton rubrum,4.407 µg/mL
same,MIC[90],Trichophyton rubrum,32.0 µg/mL
same,Geometric Mean MIC,Trichophyton soudanense,128.000 µg/mL
same,MIC[90],Trichophyton soudanense,(128.0) μg/mL
same,Geometric Mean MIC,Trichophyton terrestre,1.000 µg/mL
same,MIC[90],Trichophyton terrestre,(1.0) μg/mL
same,Geometric Mean MIC,Trichophyton tonsurans,3.775 µg/mL
same,MIC[90],Trichophyton tonsurans,32.0 µg/mL
same,Geometric Mean MIC,Trichosporon spp,12.699 µg/mL
same,MIC[90],Trichosporon spp,(4.0-64.0) μg/mL
same,Geometric Mean MIC,Yarrowia lipolytica,1.741 µg/mL
same,MIC[90],Yarrowia lipolytica,(0.125-32.0) μg/mL
